pEC50: −log10 of the molar value.
target: human APJ receptor (Homo sapiens (Human), UniProt P35414); test: [35S]GTPγS binding assay on membranes from CHO cells stably expressing human APJ receptor; type: biochemical; conditions: membranes of CHO cells stably expressing human APJ receptor, read-out: Activity hAPJ SPA EC50 IP
How it was run: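 [35S]GTPγS binding measured on membranes from CHO cells stably expressing FLAG-tagged human APJ, with GDP, MgCl2 and NaCl levels optimized beforehand. Incubation 90 min at RT, imager read-out; EC50 from non-linear regression, averaged over several independent experiments.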

Sequence of human APJ receptor (P35414 whole entry): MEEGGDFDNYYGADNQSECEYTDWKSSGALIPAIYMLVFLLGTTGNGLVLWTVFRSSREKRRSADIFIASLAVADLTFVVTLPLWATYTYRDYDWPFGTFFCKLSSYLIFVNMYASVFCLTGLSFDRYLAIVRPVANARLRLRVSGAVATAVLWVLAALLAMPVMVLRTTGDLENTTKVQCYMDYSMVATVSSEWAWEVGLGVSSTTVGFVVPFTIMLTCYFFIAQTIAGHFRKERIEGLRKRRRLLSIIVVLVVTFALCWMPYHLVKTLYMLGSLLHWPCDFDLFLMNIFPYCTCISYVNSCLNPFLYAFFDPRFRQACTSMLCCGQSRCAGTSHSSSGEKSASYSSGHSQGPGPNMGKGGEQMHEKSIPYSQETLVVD

| Compound | pEC50 |
| --- | --- |
| COc1cccc(-c2nnc(NS(=O)(=O)[C@@H](C)[C@@H](OC(C)C)c3ncc(C)cn3)n2[C@H](C)[C@@H]2CCCCO2)n1 (single isomer, unassigned) [Example 321.0] | 7.92 |
| COCC(COC)n1c(NS(=O)(=O)[C@@H](C)[C@@H](OC(C)C)c2cnc(C)cn2)nnc1-c1cccc(OC)n1 [Example 105.0] | 8.55 |
| COc1cccc(-c2nnc(NS(=O)(=O)[C@@H](C)[C@H](C)c3ncc(Cl)cn3)n2Cc2ccno2)n1 [Example 207.0, (2S,3R)-3-(5-chloro-2-pyrimidinyl)-N-(5-(6-methoxy-2-pyridinyl)-4-(1,2-oxazol-5-ylmethyl)-4H-1,2,4-triazol-3-yl)-2-butanesulfonamide] | 7.52 |
| CC[C@H]([C@@H]1CCCCO1)n1c(NS(=O)(=O)[C@@H](C)[C@H](OC)c2ncc(C)cn2)nnc1-c1cncc(C)c1 (single isomer, unassigned) [Example 333.0] | 8.11 |
| (1R,2S)-1-(5-chloropyrimidin-2-yl)-1-methoxy-N-(5-(6-methoxypyridin-2-yl)-4-(((S)-oxetan-2-yl)methyl)-4H-1,2,4-triazol-3-yl)propane-2-sulfonamide or (1R,2S)-1-(5-chloropyrimidin-2-yl)-1-methoxy-N-(5-(6-methoxypyridin-2-yl)-4-(((R)-oxetan-2-yl)methyl)-4H-1,2,4-triazol-3-yl)propane-2-sulfonamide [Example 140.0] | 7.38 |
| COc1cccc(-c2nnc(NS(=O)(=O)[C@@H](C)[C@H](C)c3ncc(Cl)cn3)n2[C@H](C)c2cnn(C)c2)n1 (racemic) [Example 298.0, (2S,3R)-3-(5-chloropyrimidin-2-yl)-N-(5-(6-methoxypyridin-2-yl)-4-((R)-1-(1-methyl-1H-pyrazol-4-yl)ethyl)-4H-1,2,4-triazol-3-yl)butane-2-sulfonamide or (2S,3R)-3-(5-chloropyrimidin-2-yl)-N-(5-(6-methoxypyridin-2-yl)-4-((S)-1-(1-methyl-1H-pyrazol-4-yl)ethyl)-4H-1,2,4-triazol-3-yl)butane-2-sulfonamide] | 8.82 |
| CC[C@H]([C@@H]1CCCCO1)n1c(NS(=O)(=O)[C@@H](C)[C@H](OC)c2ncc(C)cn2)nnc1-c1cncc(C)c1 (single isomer, unassigned) [Example 334.0] | 7.54 |
| CCc1noc(C)c1Cn1c(NS(=O)(=O)[C@@H](C)[C@H](OC)c2cnc(C)cn2)nnc1-c1cccc(OC)n1 [Example 195.0, (1R,2S)-N-(4-((3-ethyl-5-methylisoxazol-4-yl)methyl)-5-(6-methoxypyridin-2-yl)-4H-1,2,4-triazol-3-yl)-1-methoxy-1-(5-methylpyrazin-2-yl)propane-2-sulfonamide] | 6.19 |
| COCC(COC)n1c(NS(=O)(=O)[C@@H](C)[C@H](OC)c2ncc(Cl)cn2)nnc1-c1ccccn1 [Example 14.0, (1R,2S)-1-(5-chloro-2-pyrimidinyl)-N-(4-(1,3-dimethoxy-2-propanyl)-5-(2-pyridinyl)-4H-1,2,4-triazol-3-yl)-1-methoxy-2-propanesulfonamiide] | 8.19 |
| COc1cccc(-c2nnc(NS(=O)(=O)[C@@H](C)[C@@H](OC(C)C)c3ncc(C)cn3)n2C[C@H]2CCCCO2)n1 (single isomer, unassigned) [Example 300.0, (1S,2S)-1-isopropoxy-N-(5-(6-methoxypyridin-2-yl)-4-(((R)-tetrahydro-2H-pyran-2-yl)methyl)-4H-1,2,4-triazol-3-yl)-1-(5-methylpyrimidin-2-yl)propane-2-sulfonamide or (1S,2S)-1-isopropoxy-N-(5-(6-methoxypyridin-2-yl)-4-(((S)-tetrahydro-2H-pyran-2-yl)methyl)-4H-1,2,4-triazol-3-yl)-1-(5-methylpyrimidin-2-yl)propane-2-sulfonamide] | 7.85 |
| CCC(CC)n1c(NS(=O)(=O)[C@@H](C)[C@H](OC)c2ncc(Cl)cn2)nnc1-c1cccc(OC)n1 [Example 10.0, (1R,2S)-1-(5-chloro-2-pyrimidinyl)-1-methoxy-N-(5-(6-methoxy-2-pyridinyl)-4-(3-pentanyl)-4H-1,2,4-triazol-3-yl)-2-propanesulfonamide] | 9.49 |
| COC[C@H](C)n1c(NS(=O)(=O)[C@@H](C)[C@H](C)c2ncc(Cl)cn2)nnc1-c1ccccn1 [Example 175.0, (2S,3R)-3-(5-chloro-2-pyrimidinyl)-N-(4-((2S)-1-methoxy-2-propanyl)-5-(2-pyridinyl)-4H-1,2,4-triazol-3-yl)-2-butanesulfonamide] | 7.52 |
| CO[C@H](c1ncc(Cl)cn1)[C@H](C)S(=O)(=O)Nc1nnc(-c2ccncc2)n1C(C)C [Example 135.0, (1R,2S)-1-(5-chloro-2-pyrimidinyl)-1-methoxy-N-(4-(2-propanyl)-5-(4-pyridinyl)-4H-1,2,4-triazol-3-yl)-2-propanesulfonamide] | 5.72 |
| COc1cccc(-c2nnc(NS(=O)(=O)[C@@H](C)[C@H](OC)c3ncc(Cl)cn3)n2[C@H](C)[C@@H]2CCCCO2)n1 (single isomer, unassigned) [Example 318.0] | 8.62 |
| COc1cccc(-c2nnc(NS(=O)(=O)[C@@H](C)[C@H](OC)c3ncc(Cl)cn3)n2[C@@H](C)c2ccno2)n1 (mixture of isomers) [Example 200.0, (1R,2S)-1-(5-chloro-2-pyrimidinyl)-1-methoxy-N-(5-(6-methoxy-2-pyridinyl)-4-((1R)-1-(1,2-oxazol-5-yl)ethyl)-4H-1,2,4-triazol-3-yl)-2-propanesulfonamide and (1R,2S)-1-(5-chloro-2-pyrimidinyl)-1-methoxy-N-(5-(6-methoxy-2-pyridinyl)-4-((1S)-1-(1,2-oxazol-5-yl)ethyl)-4H-1,2,4-triazol-3-yl)-2-propanesulfonamide] | 9.06 |
| COc1cccc(-c2nnc(NS(=O)(=O)[C@@H](C)[C@H](C)c3ncc(Cl)cn3)n2[C@@H](C)c2ccon2)n1 (racemic) [Example 267.0, (2S,3R)-3-(5-chloropyrimidin-2-yl)-N-(4-((R)-1-(isoxazol-3-yl)ethyl)-5-(6-methoxypyridin-2-yl)-4H-1,2,4-triazol-3-yl)butane-2-sulfonamide or (2S,3R)-3-(5-chloropyrimidin-2-yl)-N-(4-((S)-1-(isoxazol-3-yl)ethyl)-5-(6-methoxypyridin-2-yl)-4H-1,2,4-triazol-3-yl)butane-2-sulfonamide] | 8.38 |
| COc1cccc(-c2nnc(NS(=O)(=O)[C@@H](C)[C@H](C)c3ncc(Cl)cn3)n2[C@@H](C)c2c(C)noc2C)n1 (racemic) [Example 314.0, (2S,3R)-3-(5-chloropyrimidin-2-yl)-N-(4-((R)-1-(3,5-dimethylisoxazol-4-yl)ethyl)-5-(6-methoxypyridin-2-yl)-4H-1,2,4-triazol-3-yl)butane-2-sulfonamide or (2S,3R)-3-(5-chloropyrimidin-2-yl)-N-(4-((S)-1-(3,5-dimethylisoxazol-4-yl)ethyl)-5-(6-methoxypyridin-2-yl)-4H-1,2,4-triazol-3-yl)butane-2-sulfonamide] | 7.48 |
| CCn1c(NS(=O)(=O)[C@@H](C)[C@H](OC)c2ncc(Cl)cn2)nnc1-c1ccccn1 [Example 131.0] | 7.60 |
| CCOCCn1c(NS(=O)(=O)[C@@H](C)[C@H](OC)c2ncc(Cl)cn2)nnc1-c1cccc(OC)n1 [Example 22.0, (1R,2S)-1-(5-chloro-2-pyrimidinyl)-N-(4-(2-ethoxyethyl)-5-(6-methoxy-2-pyridinyl)-4H-1,2,4-triazol-3-yl)-1-methoxy-2-propanesulfonamide] | 8.49 |
